Laboratory results taken from patent publication US7771712B2, “Composition for attracting blood sucking arthropods and fruit flies” (priority 2002, dated 2010).

Tested on: female A. aegypti
Assay: Y-tube olfactometer, single compound added to index finger scent against pure finger
Type: in vivo, Aedes aegypti
Description: In this example, the effect of adding certain compounds to the scent of a finger of a human volunteer was tested, using the set-up as described for example 1. The right and left index finger of each test person were tested in direct competition with simultaneous addition of a single compound to one finger; Martina (A) is highly, Martin (B) medium, and Doris (C) low attractive. The test components were alternately added to the right or to the left finger, respectively. Bars (means of 16 trials±S.E.M.) represent the percentage of mosquitoes trapped in the respective upwind chamber. Black bars represent the pure finger, white bars the mixture of finger plus the odor stimulus indicated below the bar; stimulus labels as described in FIG. 3A; asterisks indicate a significant preference (P<0.05, t-test for paired samples).
A) is a top view of the olfactometer for testing mosquitoes' odour preference. The spatial distribution of odourants in the air are outlined according to the appearance of TiCl4 smoke, which was injected into the olfactometer instead of the odour stimulus. In the arms of the olfactometer the smoke was homogeneous distributed^20. More turbulent odour eddies and filaments emerged in the rectangular chamber, although a steep gradient between both air streams can still be observed in the joined straight tube. For each test, 20 female A. aegypti mosquitoes were used from cultures of Bayer AG in Monheim, 5-15 days old, which had no blood meal before. Details of the olfactometer and the experimental procedure are described elsewhere (Geier, M. & Boeckh, J. Entomol. exp. appl. 92, 9-19 (1999); Geier, M., Bosch, O. J. & Boeckh, J. Chem. Sens. 24, 647-653 (1999)).
At stimulus onset, 20 mosquitoes in the start chamber are set free to fly through the olfactometer. During their zig zag flight through the straight tube they encounter alternately air streams from either arm. Following the favoured air stream during upwind flight the mosquitoes enter the respective upwind chamber where they are counted 30 s after stimulus onset. […]

N [Ammonia+100, Ammonia]
Attractiveness of finger scent plus compound against pure finger (FIG. 4 A, highly attractive person): less attractive

CC(=O)O [acetic acid, Acetic acid]
Attractiveness of finger scent plus compound against pure finger (up to 50-fold higher concentration than in the standard blend, any of the persons): did not change the attractiveness

CCCCCC(=O)O [capronic acid, Caproic acid]
Attractiveness of finger scent plus compound against pure finger (FIG. 4 C, low attractive person, all concentrations): more attractive
